Measurements from PubChem BioAssay AID1963852 (Molecular Pharmacology Branch, DTP, NCI, 2024).
pIC50: −log10 of the molar value.

Test system: 282377-053-R-J1-PDC complex spheroid viability
Assay: Anticancer human tumor 282377-053-R-J1-PDC patient-derived colon adenocarcinoma cell line growth inhibition [POLQ]
Conditions: for pIC50: curve of first compound; for viability, T/C: stronger effect = lower value; active means viability on the fitted dose curve at most 10% of control; inactive means the rest
Summary of the method: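 Complex spheroid viability model combining PDC tumour cells with endothelial (HUVEC) and MSC stromal cells. Novobiocin, ART-558 or RP6685 were tested singly and in combination with standard and investigational anticancer drugs. Each was titrated in half-log steps from near clinical Cmax, or from 10 microM where Cmax was unknown.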
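Further: spheroids exposed to compounds for seven days.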
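Wherever viability, T/C is given: 100% = DMSO vehicle control viability.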

CC(C)n1c(=O)n(C)c2cnc3cc(F)c(-c4ccc(OCCCN5CCCCC5)nc4)cc3c21 + COC1C(OC(N)=O)C(O)C(Oc2ccc3c(O)c(NC(=O)c4ccc(O)c(CC=C(C)C)c4)c(=O)oc3c2C)OC1(C)C
inactive: viability, T/C (second compound 0.0316 µM, first compound 0.0316 µM) 116% | viability, T/C (second compound 0.0316 µM, first compound 0.1 µM) 125% | viability, T/C (second compound 0.0316 µM, first compound 0.316 µM) 113% | viability, T/C (second compound 0.0316 µM, first compound 1 µM) 104% | viability, T/C (second compound 0.0316 µM, first compound 3.16 µM) 112% | viability, T/C (second compound 0.0316 µM, first compound 10 µM) 120% | viability, T/C (second compound 0.1 µM, first compound 0.0316 µM) 107% | viability, T/C (second compound 0.1 µM, first compound 0.1 µM) 116% | viability, T/C (second compound 0.1 µM, first compound 0.316 µM) 110% | viability, T/C (second compound 0.1 µM, first compound 1 µM) 104% | viability, T/C (second compound 0.1 µM, first compound 3.16 µM) 118% | viability, T/C (second compound 0.1 µM, first compound 10 µM) 103% | viability, T/C (second compound 0.316 µM, first compound 0.0316 µM) 108% | viability, T/C (second compound 0.316 µM, first compound 0.1 µM) 93% | viability, T/C (second compound 0.316 µM, first compound 0.316 µM) 105% | viability, T/C (second compound 0.316 µM, first compound 1 µM) 108% | viability, T/C (second compound 0.316 µM, first compound 3.16 µM) 107% | viability, T/C (second compound 0.316 µM, first compound 10 µM) 89.6% | viability, T/C (second compound 1 µM, first compound 0.0316 µM) 112% | viability, T/C (second compound 1 µM, first compound 0.1 µM) 88.4% | viability, T/C (second compound 1 µM, first compound 0.316 µM) 99.5% | viability, T/C (second compound 1 µM, first compound 1 µM) 106% | viability, T/C (second compound 1 µM, first compound 3.16 µM) 119% | viability, T/C (second compound 1 µM, first compound 10 µM) 78.4% | viability, T/C (second compound 3.16 µM, first compound 0.0316 µM) 113% | viability, T/C (second compound 3.16 µM, first compound 0.1 µM) 114% | viability, T/C (second compound 3.16 µM, first compound 0.316 µM) 108% | viability, T/C (second compound 3.16 µM, first compound 1 µM) 114% | viability, T/C (second compound 3.16 µM, first compound 3.16 µM) 106% | viability, T/C (second compound 3.16 µM, first compound 10 µM) 101% | viability, T/C (second compound 10 µM, first compound 0.0316 µM) 98.2% | viability, T/C (second compound 10 µM, first compound 0.1 µM) 104% | viability, T/C (second compound 10 µM, first compound 0.316 µM) 93.8% | viability, T/C (second compound 10 µM, first compound 1 µM) 99.2% | viability, T/C (second compound 10 µM, first compound 3.16 µM) 95.8% | viability, T/C (second compound 10 µM, first compound 10 µM) 98.8%
< 5.00: pIC50 (second compound 0.0316 µM) | pIC50 (second compound 0.1 µM) | pIC50 (second compound 0.316 µM) | pIC50 (second compound 1 µM) | pIC50 (second compound 3.16 µM) | pIC50 (second compound 10 µM)
